Experimental data: patent US11072588B2, “Barbituric acid derivatives comprising cationic and lipophilic groups” (UNIVERSITETET I TROMSØ—NORGES ARKTISKE UNIVERSITET, priority 2017, dated 2021)
≈ marks a conversion by molar mass, not a printed value. Where two headings read alike, the source gives them in different places.

How the values were obtained:
P. aeruginosa 50692172 = test: MIC, multi-resistant clinical isolate; assay type: cell-based, Pseudomonas aeruginosa; conditions: for MIC: Pseudomonas aeruginosa, read-out: Antimicrobial activity (MIC); for selectivity index (EC50/MIC): RBC EC50 / MIC
Method: (§1) Working solutions of the test derivatives were prepared with up to 100% DMSO and stored at −20° C. If necessary, the solutions were heated to 40-80° C. before testing to facilitate complete dissolution. Double-distilled water was used in all dilutions prepared. […] A microdilution susceptibility test was used for MIC determination according to Clinical and Laboratory Standards Institute, “Methods for Dilution Antimicrobial Sisceptibility Tests for Bacteria That Graw Aerobically”, Approved Standard M07-A9, edition 2012, with modifications as described by Igumnova et al (Bioorg Med Chem, 2016, 24 (22), 5884-5894).
(§2) Briefly, the bacterial inoculum was adjusted to approximately 2.5-3×10^4 cells/mL in Mueller-Hinton broth (MHB, Difco Laboratories, USA), and incubated in a ratio of 1:1 with test derivatives in polystyrene 96-well flat-bottom microplates (NUNC, Roskilde, Denmark). Positive growth control (without test derivatives) and negative control (without bacteria) were included. The reference antibiotic was oxytetracycline hydrochloride (Sigma Aldrich, Saint Louis, Mo., USA). The microplates were incubated in an EnVision microplate reader (Perkin-Elmer, Turku, Finland) placed in an incubator set to 35° C. for 48 h. The MIC value was defined as the lowest concentration of derivative resulting in no bacterial growth as determined by OD600 measurement. All derivatives were tested in three parallels.
(§3) The MIC was determined as explained above with some exceptions; working solutions of test derivatives were prepared from concentrated DMSO stocks stored at room temperature, the density of the bacterial inoculum was increased 40× to 1-1.2×10^6 cells/mL, enterococci were incubated in Brain Heart Infusion broth (BHIB, Difco Laboratories, USA), the microplates were incubated for 24 h, and the derivatives were tested in four parallels.

P. aeruginosa K34-7 = test: MIC, multi-resistant clinical isolate; assay type: cell-based, Pseudomonas aeruginosa; conditions: for MIC: Pseudomonas aeruginosa, K347, read-out: Antimicrobial activity (MIC); for selectivity index (EC50/MIC): RBC EC50 / MIC, P. aeruginosa K34-7
Method: as §1, §2, §3

P. aeruginosa K44-24 = test: MIC, multi-resistant clinical isolate; assay type: cell-based, Pseudomonas aeruginosa; conditions: for MIC: Pseudomonas aeruginosa, K4424, read-out: Antimicrobial activity (MIC); for selectivity index (EC50/MIC): RBC EC50 / MIC
Method: as §1, §2, §3

P. aeruginosa K34-73 = test: MIC, multi-resistant clinical isolate; assay type: cell-based, Pseudomonas aeruginosa; conditions: for MIC: Pseudomonas aeruginosa; for selectivity index (EC50/MIC): RBC EC50 / MIC
Method: as §1, §2, §3

P. aeruginosa 50692520 = test: MIC, multi-resistant clinical isolate; assay type: cell-based, Pseudomonas aeruginosa; conditions: for MIC: Pseudomonas aeruginosa, read-out: Antimicrobial activity (MIC); for selectivity index (EC50/MIC): RBC EC50 / MIC
Method: as §1, §2, §3

[1] = Determination of haemolytic activity; assay type: cell-based; conditions: human red blood cells (washed, from heparinized fresh blood); human RBCs, 1 h, 37° C.; read-out: RBC: haemolytic activity against human RBCs (EC50)
Method: Hemolysis was determined using a heparinized fraction (1000 IU/mL) of freshly drawn blood. Blood collected in EDTA containing test tubes (Vacutest®, KIMA, Arzergrande, Italy) was used for determination of the hematocrit (hct). The heparinized blood was washed 3× with pre-warmed PBS and adjusted to a final hct of 4%. Derivatives in DMSO (50 mM) were added to a 96-well polypropylene V-bottom plate (NUNC, Fisher Scientific, Oslo, Norway) and serially diluted. The test concentration range was 500-4 μM with DMSO contents ≤1%. A solution of 1% triton X-100 was used as positive control for 100% hemolysis. As negative control a solution of 1% DMSO in PBS buffer was included. No signs of DMSO toxicity were detected. RBCs (1% v/v final concentration) were added to the well plate and incubated at 37° C. and 800 rpm for 1 h. After centrifugation (5 min, 3000 g), 100 μL of each well were transferred to a 96-well flat bottom plate and absorbance was measured at 545 nm with a microplate reader (VersaMax™, Molecular Devices, Sunnyvale, Calif., USA). The percentage of hemolysis was calculated as the ratio of the absorbance in the derivative-treated and surfactant treated samples, corrected for the PBS background. Three independent experiments were performed and EC50 values are presented as averages.

K. pneumoniae 50625602 = test: MIC, multi-resistant clinical isolate; assay type: cell-based, Klebsiella pneumoniae; conditions: for MIC: Klebsiella pneumoniae, read-out: Antimicrobial activity (MIC); for selectivity index (EC50/MIC): RBC EC50 / MIC
Method: as §1, §2, §3

K. pneumoniae 50667959 = test: MIC, multi-resistant clinical isolate; assay type: cell-based, Klebsiella pneumoniae; conditions: for MIC: Klebsiella pneumoniae, read-out: Antimicrobial activity (MIC); for selectivity index (EC50/MIC): RBC EC50 / MIC
Method: as §1, §2, §3

K. pneumoniae K66-45 = test: MIC, multi-resistant clinical isolate; assay type: cell-based, Klebsiella pneumoniae; conditions: for MIC: Klebsiella pneumoniae, K6645, read-out: Antimicrobial activity (MIC); for selectivity index (EC50/MIC): RBC EC50 / MIC, K. pneumoniae K66-45
Method: as §1, §2, §3

K. pneumoniae 50531633 = test: MIC, multi-resistant clinical isolate; assay type: cell-based, Klebsiella pneumoniae; conditions: K. pneumoniae 50531633, resistant to colistin; for MIC: Klebsiella pneumoniae, 24 h, read-out: Antimicrobial activity (MIC); for selectivity index (EC50/MIC): RBC EC50 / MIC
Method: as §1, §2, §3

K. pneumoniae K47-25 = test: MIC, multi-resistant clinical isolate; assay type: cell-based, Klebsiella pneumoniae; conditions: for MIC: Klebsiella pneumoniae, K4725, 24 h, read-out: Antimicrobial activity (MIC)
Method: as §1, §2, §3

S. aureus IHT 99040 = test: MIC, multi-resistant clinical isolate; assay type: cell-based, Staphylococcus aureus; conditions: for selectivity index (EC50/MIC): RBC EC50 / MIC; for MIC: Staphylococcus aureus, IHT99040, read-out: Antimicrobial activity (MIC)
Method: as §1, §2, §3

S. aureus N315 = test: MIC, multi-resistant clinical isolate; assay type: cell-based, Staphylococcus aureus; conditions: for selectivity index (EC50/MIC): RBC EC50 / MIC, S. aureus N315; for MIC: Staphylococcus aureus, N315, read-out: Antimicrobial activity (MIC)
Method: as §1, §2, §3

S. aureus strain WIS = test: MIC, multi-resistant clinical isolate; assay type: cell-based, Staphylococcus aureus; conditions: for selectivity index (EC50/MIC): RBC EC50 / MIC, S. aureus strain WIS; for MIC: Staphylococcus aureus, read-out: Antimicrobial activity (MIC)
Method: as §1, §2, §3

S. aureus strain 85/2082 = test: MIC, multi-resistant clinical isolate; assay type: cell-based, Staphylococcus aureus; conditions: for selectivity index (EC50/MIC): RBC EC50 / MIC, S. aureus strain 85/2082; for MIC: Staphylococcus aureus, 85/2082, read-out: Antimicrobial activity (MIC)
Method: as §1, §2, §3

S. aureus NCTC 10442 = test: MIC, multi-resistant clinical isolate; assay type: cell-based, Staphylococcus aureus; conditions: for selectivity index (EC50/MIC): RBC EC50 / MIC, S. aureus NCTC 10442; for MIC: Staphylococcus aureus, NCTC10442, read-out: Antimicrobial activity (MIC)
Method: as §1, §2, §3

Structure (SMILES)	MIC (P. aeruginosa 50692172) [µg/mL]	selectivity index (EC50/MIC) (P. aeruginosa 50692172)	MIC (P. aeruginosa K34-7) [µg/mL]	selectivity index (EC50/MIC) (P. aeruginosa K34-7)	MIC (P. aeruginosa K44-24) [µg/mL]	selectivity index (EC50/MIC) (P. aeruginosa K44-24)	selectivity index (EC50/MIC) (P. aeruginosa K34-73; P. aeruginosa K34-73)	MIC (P. aeruginosa 50692520) [µg/mL]	selectivity index (EC50/MIC) (P. aeruginosa 50692520)	EC50 at 1 h [1] [µg/mL]	MIC (K. pneumoniae 50625602) [µg/mL]	selectivity index (EC50/MIC) (K. pneumoniae 50625602)	MIC (K. pneumoniae 50667959) [µg/mL]	selectivity index (EC50/MIC) (K. pneumoniae 50667959)	MIC (K. pneumoniae K66-45) [µg/mL]	selectivity index (EC50/MIC) (K. pneumoniae K66-45)	MIC (K. pneumoniae 50531633) [µg/mL]	selectivity index (EC50/MIC) (K. pneumoniae 50531633)	selectivity index (EC50/MIC) (S. aureus IHT 99040)	MIC (S. aureus IHT 99040) [µg/mL]	further results
NCCCCN1C(=O)N(CCCCN)C(=O)C(Cc2cc(C(F)(F)F)cc(C(F)(F)F)c2)(Cc2cc(C(F)(F)F)cc(C(F)(F)F)c2)C1=O [7(vi)]	32 (≈ 44.3 µM)	(6)	32 (≈ 44.3 µM)	(6)	32 (≈ 44.3 µM)	(6)	(6)	32 (≈ 44.3 µM)	(6)	183 (≈ 253 µM)	32 (≈ 44.3 µM)	(6)	32 (≈ 44.3 µM)	(6)	32 (≈ 44.3 µM)	(6)	32 (≈ 44.3 µM)	(6)	(11)	16 (≈ 22.1 µM)	MIC (P. aeruginosa K34-73; K3473, read-out: Antimicrobial activity (MIC)): 32 µg/mL (≈ 44.3 µM); MIC (K. pneumoniae K47-25): > 32 µg/mL; selectivity index (EC50/MIC) (S. aureus N315): (11); MIC (S. aureus N315): 16 µg/mL (≈ 22.1 µM); selectivity index (EC50/MIC) (S. aureus strain WIS): (11); MIC (S. aureus strain WIS): 16 µg/mL (≈ 22.1 µM); selectivity index (EC50/MIC) (S. aureus strain 85/2082): (11); MIC (S. aureus strain 85/2082): 16 µg/mL (≈ 22.1 µM); selectivity index (EC50/MIC) (S. aureus NCTC 10442): (11); MIC (S. aureus NCTC 10442): 16 µg/mL (≈ 22.1 µM)
N=C(N)NCCCCN1C(=O)N(CCCCNC(=N)N)C(=O)C(Cc2ccc3ccccc3c2)(Cc2ccc3ccccc3c2)C1=O [8(iv), 1,1′-(4,4′-(5,5-bis(naphthalen-2-ylmethyl)-2,4,6-trioxodihydropyrimidine-1,3(2H,4H)-diyl)bis(butane-4,1-diyl))-diguanidine]	32 (≈ 50.4 µM)	(4)	32 (≈ 50.4 µM)	(4)	32 (≈ 50.4 µM)	(4)	(4)	32 (≈ 50.4 µM)	(4)	133 (≈ 210 µM)	16 (≈ 25.2 µM)	(8)	16 (≈ 25.2 µM)	(8)	16 (≈ 25.2 µM)	(8)	16 (≈ 25.2 µM)	(8)	(17)	8 (≈ 12.6 µM)	MIC (P. aeruginosa K34-73; K3473, P. aeruginosa K34-73, read-out: Antimicrobial activity (MIC)): 32 µg/mL (≈ 50.4 µM); MIC (K. pneumoniae K47-25; K. pneumoniae K47-25, resistant to colistin): 16 µg/mL (≈ 25.2 µM); selectivity index (EC50/MIC) (K. pneumoniae K47-25; RBC EC50 / MIC, K. pneumoniae K47-25, resistant to colistin): (8); selectivity index (EC50/MIC) (S. aureus N315): (17); MIC (S. aureus N315): 8 µg/mL (≈ 12.6 µM); selectivity index (EC50/MIC) (S. aureus strain WIS): (17); MIC (S. aureus strain WIS): 8 µg/mL (≈ 12.6 µM); selectivity index (EC50/MIC) (S. aureus strain 85/2082): (17); MIC (S. aureus strain 85/2082): 8 µg/mL (≈ 12.6 µM); selectivity index (EC50/MIC) (S. aureus NCTC 10442): (17); MIC (S. aureus NCTC 10442): 8 µg/mL (≈ 12.6 µM)
